Experimental findings from ChEMBL document CHEMBL1142765, “Discodermolide analogues as the chemical component of combination bacteriolytic therapy” (Bioorg Med Chem Lett, 2005) are described below.

Assay type in all cases: functional, organism-based
Settings in all cases: Homo sapiens

The subject of one assay is SK-OV-3. The experiment in a line: Inhibitory concentration […] exhibited against SKOV3 cell line […].
A further assay deals with A549. The experiment in a line: Inhibitory concentration […] exhibited against A549 cell line […].
The test system of a further assay is MCF7. The experiment in a line: Inhibitory concentration […] exhibited against MCF-7 cell line […].

Usually IC50 stands for the midpoint of a concentration-inhibition curve. Read a high IC50 as lower potency. On to `C=C/C=C\[C@H](C)[C@H](OC(N)=O)[C@@H](C)[C@H](O)[C@@H](C)C/C(C)=C\[C@H](C)[C@@H](O)[C@@H](C)/C=C\[C@@H](O)C[C@@H]1OC(=O)C=C[C@H]1C`, for which the IC50 stood at 3.4 nM with SK-OV-3, 3.7 nM with A549 and 2.1 nM in the assay on MCF7.
The like results for `C=C/C=C\[C@H](C)[C@H](OC(N)=O)[C@@H](C)[C@H](O)[C@@H](C)C/C(C)=C\[C@H](C)[C@@H](O)[C@@H](C)/C=C\[C@@H](O)C[C@@H]1OC(=O)[C@H](C)[C@@H](O)[C@H]1C` [DISERMOLIDE] were, in that order, 21 nM, 22 nM and 28 nM.
The like results for `C=C/C=C\[C@H](C)[C@H](OC(N)=O)[C@@H](C)[C@H](O)[C@@H](C)C/C=C\[C@H](C)[C@@H](O)[C@@H](C)/C=C\[C@@H](O)C[C@@H]1OC(=O)[C@H](C)[C@@H](O)[C@H]1C` were, in that order, 35 nM, 50 nM and 46 nM.
The like results for `C=C/C=C\[C@H](C)[C@H](OC(N)=O)[C@@H](C)[C@H](O)[C@@H](C)C/C(C)=C\[C@H](C)[C@@H](O)[C@@H](C)/C=C\[C@@H](O)C[C@@H]1OC(=O)C(C)=C[C@H]1C` were, in that order, 3.4 nM, 8.6 nM and 5.6 nM.
